The subject of series [1] is human neuroblastoma MC-65 cells. Kind of series: cells. Conditions: for EC100 / minimal effective concentration: Homo sapiens, MC65, 48 h; for EC100: read-out: EC100 (maximum effective concentration); for minimal effective concentration: read-out: TH (threshold protective concentration); for CC2 (cytotoxic concentration): MC-65, cultured without tetracycline; for CC2 (cytotoxic concentration) / CC1 (cytotoxic concentration): viability below 80%; for CC1 (cytotoxic concentration): MC-65, presence of TET. The method, boiled down: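 MC-65 cells (conditional Aβ fusion-protein expression, TET-repressed) were washed free of TET and FBS, then exposed to compound ~48 h in serum-free medium without or with 1 μg/mL TET.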

Series [2] can be described thus: Fe speciation plot (HySS). The series is classed as physicochemical. Conditions: for % FeL2H2 at pH 7.4 / % FeL3H2 (species 132) at pH 7.4 / % FeL3H3 (species 133) at pH 7.4 / % FeL3H (species 131) at pH 7.4 / % FeL3 (species 130, neutral/uncharged ferric chelate) at pH 7.4: Fe:ligand 1:10, [Fe]=1×10^−6 M, [L]=1×10^−5 M. An excerpt: Example 54 illustrates the speciation distribution of several amino fluorinated derivatives of 3-hydroxypyridin-4-(1H)-ones of the invention. The speciation plot (distribution of ferric chelate species) of two compounds of formula I (Apo7067 and Apo7323) at pH 7.4 is provided in the following table.
(§1) After obtaining three pKa values for Apo7323 (ligand), three pKa values for the Fe-Apo7323 complex, and the log β values for Fe-Apo7323 as shown in the following table, a speciation plot (FIG. 14) was constructed using the HySS software program. pFe was also calculated using the HySS software.

Series [3] in a line: Stepwise formation constants for Fe-ligand system by titration in 0.1M NaCl. It is filed as physicochemical. Conditions: for K111 / K122 / K133: stepwise constant, Fe-ligand system, Example 53; for pFe^3+: pH 7.4, ligand 10 μM, metal 1 μM, HySS. The procedure:
Stepwise formation constants for M^n+-ligand systems were determined by spectrophotometric titration when metal complexes have a strong absorbance in the visible region due to ligand to metal charge transfer.
In a typical experiment, the sample solution was prepared according to the following procedure: compound Apo7041 (12.96 mg) was weighed into a 50 mL volumetric flask, and about 40 mL of 0.1 M NaCl was added. The mixture was sonicated for 10 min to give a clear colorless solution. The iron stock solution (atomic absorption standard, Aldrich, 565 μL, 10.00 μmol) was pipetted into the solution, followed by the addition of 1.000 N NaOH (170 μL). More of the 0.1 M NaCl was added to volume and the resulting solution was vortexed to mix. The molar ratio between the total iron and the total Apo7041 was 1/5.1. The mixture was vortexed at rt for 1 h. 20 mL of the sample solution was transferred into a 35 mL beaker by using a 10 mL digital pipet. The sample solution was circulated between the beaker and the flow cell using a sipper system. The sample solution was titrated against hydrochloric acid solutions at 22° C. until the pH reached 0.021. After each addition of acid, the solution was allowed to equilibrate until a constant pH reading was reached. The pH and the UV-Vis spectrum were recorded for each measurement. For each measurement enough acid was added so that there was a slight decrease in the absorbance of the spectrum. Altogether, 68 measurements were taken to finish the experiment.
The resulting data set was then analyzed using pHAB. The formation constants for Fe-Apo7041 system were optimized using the model shown in the first column of the table.
pM^n+ is defined as −log [M(H2O)m]^n+ at physiological conditions, i.e.: pH 7.4, a ligand concentration of 10 μM, and a metal concentration of 1 μM. To calculate pM^n+ for a MLn system, βn and pKa values are needed (βn are the formation constants for M^n++n L^−⇄MLn; pKa are the equilibrium constants for L^−+n H^+⇄LHn^(n-1)+). The pM^n+ is calculated using the HySS software (HYSS© 2000 Protonic Software).
The log β values of the Fe-Apo7323 system were determined by spectrophotometric titration using an Agilent 8453 UV-visible spectroscopy system (see Example 29B). The sample solution was a mixture of Fe^3+ (2×10^−4 M) and Apo7323 (1×10^−3 M) in 0.1 N NaCl aqueous solvent. The titration data in a pH range of 3.408 to 0.655 were fitted with pHAB using the model shown in FIG. 1 to obtain Log β111, Log β122, and Log β133.
The sample solution was a mixture of Fe^3+ (6×10^−3M) and Apo7323 (1.8×10^−2M) in 0.1 N NaCl aqueous solvent. The titration started at pH 1.72 and ended at pH 11.5 using 3 M NaOH as the titrant. The titration data in a pH range of 3 to 10 were fitted with Hyperquad2000 software using the model:
[drawing 175] where 133 is the species (FeL3H3)^3+, 132 is the species is (FeL3H2)^2+, 131 is the species (FeL3H)^+, and 130 is the species FeL3.
as §1

Where [4] appears, read: 0.1 M NaCl, spectrophotometric titration.
Setting [5] is: 0.1 M NaCl, spectrophotometric titration, fitted.

Turning to `O=c1ccn(CC(F)(F)F)c(CN2CCOCC2)c1O` [Apo7323, 3-hydroxy-2-(morpholinomethyl)-1-(2,2,2-trifluoroethyl)pyridin-4(1H)-one], in series [1], the EC100 is 20 µM, the minimal effective concentration is 1 µM, the “CC2 (cytotoxic concentration)” value stood at 80 µM and the “CC1 (cytotoxic concentration)” value amounted to 80 µM. In addition, in series [2], the “% FeL2H2 at pH 7.4” value came to 0.0%, the “% FeL3H2 (species 132) at pH 7.4” value stood at 0.0%, the “% FeL3H3 (species 133) at pH 7.4” value came to 0.0% and the “% FeL3H (species 131) at pH 7.4” value is given as 3.1%. In addition, in series [3] (setting [4]), the “Log β111 (Fe3+)” value was 18.4, the “Log β122 (Fe3+)” value is reported as 34.9 and the “Log β133 (Fe3+)” value is on record as 50.1. Besides, the “Log β130 (Fe3+)” value in series [3] (Example 53: Log β131 − pKa1(C)) came to 35.7. Also, in series [3] (Example 53: Log β132 − pKa2(C)), the “Log β131 (Fe3+)” value was 41.6. Moreover, the “Log β132 (Fe3+)” value in series [3] (Example 53: Log β133 − pKa3(C)) worked out at 46.2. In series [3], this molecule yielded a K111 of 18.4, a K122 of 16.5 and a K133 of 15.1.
`CN(C)C(c1c(O)c(=O)ccn1C)C(F)(F)F` (stereo not drawn) [Apo7041, 2-[1-(dimethylamino)-2,2,2-trifluoroethyl]-3-hydroxy-1-methylpyridin-4(1H)-one]: in series [1], the EC100 turned out to be 10 µM, the minimal effective concentration is 0.1 µM, the “CC2 (cytotoxic concentration)” value is 80 µM and the “CC1 (cytotoxic concentration)” value was 10 µM. Moreover, the “pH from which the FeL3 chelate is stable” value in series [2] (speciation plot FIG. 5) was not below 5. For the same molecule, in series [3] (0.1 M NaCl, fitted), the “Log β130 (Fe3+)” value was 38.8. Moreover, in series [3] (setting [4]), the “Log β111 (Fe3+)” value was 18.1, the “Log β122 (Fe3+)” value was 35.0 and the “Log β133 (Fe3+)” value worked out at 50.5. Further, in series [3] (setting [5]), the “Log β131 (Fe3+)” value is 44.5 and the “Log β132 (Fe3+)” value is 48.3. Further, the “pFe^3+” value in series [3] is “pFe^3+ = 23.4”.
Turning to `CNC(c1cn(C)c(C)c(O)c1=O)C(F)(F)F` (stereo not drawn) [Apo7056, 3-Hydroxy-1,2-dimethyl-5-[2,2,2-trifluoro-1-(methylamino)ethyl]pyridin-4(1H)-one], in series [1], the EC100 is 10 µM, the minimal effective concentration was 0.1 µM, the “CC2 (cytotoxic concentration)” value is 80 µM and the “CC1 (cytotoxic concentration)” value stood at 80 µM. For the same molecule, in series [2], the “% FeL2H2 at pH 7.4” value is given as 0.0%; the “% FeL3 (species 130, neutral/uncharged ferric chelate) at pH 7.4” value is 97.5%; the “% FeL3H2 (species 132) at pH 7.4” value was determined as 0.0%; the “% FeL3H3 (species 133) at pH 7.4” value amounted to 0.0%. Moreover, the “% FeL3H (species 131) at pH 7.4” value in series [2] is recorded as 2.40%. In series [3] (setting [4]), the “Log β111 (Fe3+)” value is 18.7, the “Log β122 (Fe3+)” value worked out at 35.9 and the “Log β133 (Fe3+)” value was 51.5. Also, the “Log β130 (Fe3+)” value in series [3] (Example 53: Log β131 − pKa1(C)) came to 36.5. Further, the “Log β131 (Fe3+)” value in series [3] (Example 53: Log β132 − pKa2(C)) was found to be 42.3. Besides, in series [3] (Example 53: Log β133 − pKa3(C)), the “Log β132 (Fe3+)” value is listed as 47.3. Besides, in series [3], the K111 is on record as 18.7, the K122 is recorded as 17.2 and the K133 is 15.6.
Consider `CN(C)Cc1c(O)c(=O)ccn1CC(F)(F)F` [Apo7067, 2-[(dimethylamino)methyl]-3-hydroxy-1-(2,2,2-trifluoroethyl)pyridin-4(1H)-one], for which, in series [1], the EC100 is 10 µM, the minimal effective concentration was found to be 0.1 µM, the “CC2 (cytotoxic concentration)” value was found to be 80 µM and the “CC1 (cytotoxic concentration)” value was 80 µM. In addition, in series [2], the “% FeL3H2 (species 132) at pH 7.4” value came to 24.6%, the “% FeL3H3 (species 133) at pH 7.4” value was 1.2% and the “% FeL3H (species 131) at pH 7.4” value is reported as 61.8%. For the same molecule, in series [3] (setting [4]), the “Log β111 (Fe3+)” value is 20.0, the “Log β122 (Fe3+)” value stood at 38.7 and the “Log β133 (Fe3+)” value stood at 55.7. Moreover, in series [3] (Example 53: Log β131 − pKa1(C)), the “Log β130 (Fe3+)” value is 34.5. Also, in series [3] (Example 53: Log β132 − pKa2(C)), the “Log β131 (Fe3+)” value was determined as 42.6. Further, the “Log β132 (Fe3+)” value in series [3] (Example 53: Log β133 − pKa3(C)) is 49.6. Besides, in series [3], the K111 came to 20.0, the K122 was 18.7 and the K133 was found to be 17.0.
For `Cc1c(O)c(=O)c(C(N2CCOCC2)C(F)(F)F)cn1C` (stereo not drawn) [Apo7435, 3-hydroxy-1,2-dimethyl-5-(2,2,2-trifluoro-1-morpholinoethyl)pyridin-4(1H)-one], in series [1], the EC100 came out at 10 µM, the minimal effective concentration was 1 µM, the “CC2 (cytotoxic concentration)” value came to 40 µM and the “CC1 (cytotoxic concentration)” value amounted to 40 µM. Besides, in series [2], the “% FeL2H2 at pH 7.4” value amounted to 0.0%; the “% FeL3 (species 130, neutral/uncharged ferric chelate) at pH 7.4” value is reported as 100%; the “% FeL3H2 (species 132) at pH 7.4” value is on record as 0.0%; the “% FeL3H3 (species 133) at pH 7.4” value was 0.0%. For the same molecule, the “% FeL3H (species 131) at pH 7.4” value in series [2] came to 0.00%. Moreover, in series [3] (setting [4]), the “Log β111 (Fe3+)” value was 15.9, the “Log β122 (Fe3+)” value is 30.4 and the “Log β133 (Fe3+)” value came to 44.8. Moreover, in series [3] (Example 53: Log β131 − pKa1(C)), the “Log β130 (Fe3+)” value stood at 35.6. The “Log β131 (Fe3+)” value in series [3] (Example 53: Log β132 − pKa2(C)) amounted to 39.6. In addition, the “Log β132 (Fe3+)” value in series [3] (Example 53: Log β133 − pKa3(C)) is recorded as 42.7. In series [3], the K111 worked out at 15.9, the K122 stood at 14.5 and the K133 was 14.4.
Regarding `Cc1c(O)c(=O)ccn1C` [Deferiprone, 3-hydroxy-1,2-dimethylpyridin-4(1H)-one, reference compound], in series [2], the “% FeL3 (species 130, neutral/uncharged ferric chelate) at pH 7.4” value is on record as approximately 100%. Besides, the “Log β130 (Fe3+)” value in series [3] (0.1 M NaCl, fitted, listed as deferiprone) came out at 37.24. In series [3] (0.1 M NaCl, fitted, listed as drawing 103), the “Log β130 (Fe3+)” value is recorded as “Logβ130 = 37.24”. In series [3] (0.1M aqueous NaCl), the “Logβ110 (Fe3+)” value is on record as “Logβ110 = 14.85” and the “Logβ120 (Fe3+)” value is recorded as “Logβ120 = 27.25”. For the same molecule, the “pFe^3+” value in series [3] is on record as “pFe^3+ = 20.2”.

The values are drawn from US9938240B2, “Fluorinated derivatives of 3-hydroxypyridin-4-ones” (Apotex Technologies Inc., priority 2009, dated 2018).
